Laboratory results taken from US12319652B2, “Salts and solid forms of (R)-1-(5-methoxy-1H-indol-1-yl)-N,N-dimethylpropan-2-amine” (priority 2021, dated 2025).
Like-named read-outs stand apart in the source and are kept apart here.

Legend:
[1] = Dynamic vapor sorption (DVS); assay type: physicochemical; conditions: for DVS isotherm type / hygroscopicity: 0 to 90 to 0% RH; for DVS mass change at 90.0% RH / DVS mass change at 0.0% RH / DVS mass change at 5.0% RH / DVS mass change at 10.0% RH / DVS mass change at 15.0% RH / DVS mass change at 20.0% RH / DVS mass change at 25.0% RH / DVS mass change at 30.0% RH / DVS mass change at 40.0% RH / DVS mass change at 50.0% RH / DVS mass change at 60.0% RH / DVS mass change at 70.0% RH / DVS mass change at 80.0% RH: dm/dt <0.002%
Summary of the method: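 At 25 °C, 20 to 50 mg sample was dried at 0% RH for 60 minutes, then humidity raised 0-30% in 5% steps and 30-90% in 10% steps, with matching desorption back to 0%. Equilibrium set at dm/dt 0.002%/min; amorphous material was run with fixed 1 hour steps.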

[2] = In-situ hydration evaluation of monofumarate Form A; assay type: physicochemical; conditions: ambient
Protocol: An XRPD specimen of monofumarate Form A was prepared and treated with sequential aliquots of water.
An XRPD plate was made up with a small amount of compound 1·Fumarate (batch 1, 5 mg, 1.0 wt) and analysed by XRPD on the 9-minute method and labelled as T=0. After the run, the sample was charged with purified water (10 μL, 2.0 vol) and analysed again by XRPD, labelled as T=9. This was repeated twice more for T=18 and T=27. The sample was left to stand under ambient conditions (15-25° C., ambient humidity, and pressure) in the fume hood for 33 h (FIG. 23).

[3] = Solubility determinations in SIF buffers (FaSSIF, FeSSIF, FaSSGF); assay type: physicochemical; conditions: 37° C. up to 24 h
Summary of the method: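 Salt forms suspended at 30 mg/ml in FaSSIF, FeSSIF or FaSSGF at 37° C. for 24 h, pH kept in range with 1 M HCl or NaOH. Supernatants sampled at 1, 3, 6 and 24 h, centrifuged and quantified by HPLC as compound 1 free base against amorphous compound 1 calibrants; pellets checked by XRPD for form change.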

[4] = Amorphous forms and thermal study (glass temperature Tg by DSC/TGA); assay type: physicochemical
[5] = assay type: physicochemical
Protocol: Both samples were maintained at 75% RH at 40° C. and monitored by HPLC at time points t=1 h, 3 h, 24 h, 48 h, 7 d, 2 w, 3 w, 4 w and 5 w.
Under the conditions evaluated during this study, XRPD analysis could not be performed as compound 1 Fumarate turned to an oily residue within 3 h under both conditions.
[…] Both samples were maintained under equilibrium humidity of 75% RH at 40° C. and monitored, initially at hourly and then weekly time points.

COc1ccc2c(ccn2C[C@@H](C)N(C)C)c1.O=C(O)/C=C/C(=O)O
RH above which pronounced mono, multilayer sorption and probable deliquescence occurred [1]: > 80 % RH
DVS isotherm type / hygroscopicity ([1]; listed as Form A): DVS mass per unit time equlibrated @ dm/dt (0.0002%/min) on Form A was performed (specimen was deliquescent by DVS).
DVS isotherm type / hygroscopicity ([1]; listed as compound 1 fumarate crystalline polymorphic Form A): deliquescent type isotherm
DVS weight gain at 70% RH ([1]; 70% RH (printed 70° RH in Example 8)): ca. 1 % w/w
DVS mass change at 90.0% RH ([1]; desorption step (second 90.0 entry)): 9.440%
DVS mass change at 0.0% RH ([1]; desorption step): 0.085%
DVS mass change at 5.0% RH ([1]; desorption step): 0.113%
DVS mass change at 10.0% RH ([1]; desorption step): 0.141%
DVS mass change at 15.0% RH ([1]; desorption step): 0.169%
DVS mass change at 20.0% RH ([1]; desorption step): 0.201%
DVS mass change at 25.0% RH ([1]; desorption step): 0.238%
DVS mass change at 30.0% RH ([1]; desorption step): 0.279%
DVS mass change at 40.0% RH ([1]; desorption step): 0.374%
DVS mass change at 50.0% RH ([1]; desorption step): 0.476%
DVS mass change at 60.0% RH ([1]; desorption step): 0.619%
DVS mass change at 70.0% RH ([1]; desorption step): 0.885%
DVS mass change at 80.0% RH ([1]; desorption step): 2.087%
DVS mass change at 0.0% RH ([1]; sorption step): 0.00%
DVS mass change at 5.0% RH ([1]; sorption step): 0.021%
DVS mass change at 10.0% RH ([1]; sorption step): 0.047%
DVS mass change at 15.0% RH ([1]; sorption step): 0.068%
DVS mass change at 20.0% RH ([1]; sorption step): 0.088%
DVS mass change at 25.0% RH ([1]; sorption step): 0.107%
DVS mass change at 30.0% RH ([1]; sorption step): 0.125%
DVS mass change at 40.0% RH ([1]; sorption step): 0.173%
DVS mass change at 50.0% RH ([1]; sorption step): 0.242%
DVS mass change at 60.0% RH ([1]; sorption step): 0.366%
DVS mass change at 70.0% RH ([1]; sorption step): 0.590%
DVS mass change at 80.0% RH ([1]; sorption step): 0.174%
DVS mass change at 90.0% RH ([1]; sorption step): 9.440%
Form change on treatment with sequential aliquots of water (XRPD) [2]: conversion into its amorphous form
Solubility in FaSSGF [3]: Solubility in SIF buffers: Soluble in FaSSIF, FeSSIF and FaSSGF at 37°
Solubility in FaSSIF [3]: Solubility in SIF buffers: Soluble in FaSSIF, FeSSIF and FaSSGF at 37°
Solubility in FeSSIF [3]: Solubility in SIF buffers: Soluble in FaSSIF, FeSSIF and FaSSGF at 37°

COc1ccc2c(ccn2C[C@@H](C)N(C)C)c1.O=C(O)/C=C/C(=O)O [amorphous compound 1 fumarate]
DSC measurements, Endset ([4]; DSC thermal event Tg): 34.30 °C
DSC measurements, Integral ([4]; DSC thermal event Tg): −1.73 Jg^−1
DSC measurements, Onset ([4]; DSC thermal event Tg): 21.14 °C
DSC measurements, Peak ([4]; DSC thermal event Tg): 29.67 °C
Form Assignment ([4]; heated up past the melt event on a hot stage microscope): Amorphous
HPLC (% area) ([5]; input batch 1 before storage at 75% RH/40° C.): 93.84 % area
HPLC (% area) ([5]; open-necked wide vial, 75% RH/40° C., t = 2 w): 91.24 % area
HPLC (% area) ([5]; open-necked wide vial, 75% RH/40° C., t = 3 w): 94.17 % area
HPLC (% area) ([5]; open-necked wide vial, 75% RH/40° C., t = 4 w): 91.86 % area
HPLC (% area) ([5]; open-necked wide vial, 75% RH/40° C., t = 5 w): 91.57 % area
HPLC (% area) ([5]; sealed PK0056 electrostatic bags, 75% RH/40° C., t = 2 w): 91.21 % area
HPLC (% area) ([5]; sealed PK0056 electrostatic bags, 75% RH/40° C., t = 3 w): 91.94 % area
HPLC (% area) ([5]; sealed PK0056 electrostatic bags, 75% RH/40° C., t = 4 w): 90.9 % area
HPLC (% area) ([5]; sealed PK0056 electrostatic bags, 75% RH/40° C., t = 5 w): 91.3 % area
